We go through 60 molecules from article PMC12040169 (PLOS Biology, 2025).

The viability is a read-out of living cells in per cent, often relative to untreated cells.

The first series can be described thus: in vitro. To be noted: human, hela cells.
For `CN(C)C(=O)OCCn1c(=O)oc2cc(Cl)ccc21` [CBK306455], the viability at 28.5 h, 10 µM is 81.9%.

The same series, now with this note: human, hela cells, % viability.
For the molecule `CC(C)(C)C1CCC(OC(=O)Cn2nnc3ccccc3c2=O)CC1` (stereo not drawn) [CBK306408], the viability at 28.5 h, 10 µM worked out at 88.9%.
Still for that read-out and setting: the result for `CC(C)c1nc(NCCc2nnc3n2CCC3)nc(N(C)C)n1` [CBK306409] reads 89.1%.
For `COCC1CCN(c2ncc(C#N)cc2Cl)CC1` [CBK306410], the viability at 28.5 h, 10 µM was 61.1%.
The same measure, in the same setting: the result for `CC(=O)NC(CCC(N)=O)C(=O)N1CC2(CCCC2)c2c(F)cccc21` (stereo not drawn) [CBK306412] reads 82.9%.
Still for that read-out and setting: in the case of `c1cnn(C2CCN(Cc3ccc(Oc4cnccn4)cc3)CC2)c1` [CBK306417] it was 85.7%; in that of `N#Cc1nccnc1NCc1ccccc1CN1CCCC1CO` (stereo not drawn) [CBK306418], 102%; in that of `CCn1c(SC(C)C(N)=O)nc2ccc(Br)cc2c1=O` (stereo not drawn) [CBK306424], 74.6%.
Same read-out and setting: the result for `CC(C)c1nsc(NCCc2nnc3n2CCCC3)n1` [CBK306425] reads 92.4%; that for `CC(C)c1nc(NCCc2nnc3n2CCCC3)nc(N(C)C)n1` [CBK306426], 112%.
With `Cc1nnnn1-c1cc(NC(=O)NCCc2ccnn2C)ccc1F` [CBK306428], the viability at 28.5 h, 10 µM was 87.8%.
Same read-out and setting: in the case of `CCOC(=O)c1cnn(C2CCCN(c3cccc(C#N)n3)C2)c1` (stereo not drawn) [CBK306430] it was 81.5%; in that of `Cc1cnc(CN2CCNC(=O)C2c2ccccc2C(F)(F)F)o1` (stereo not drawn) [CBK306431], 85.4%.
Same read-out and setting: the result for `CCNC(=O)CNc1cc(C#N)ccc1C(F)(F)F` [CBK306432] reads 86.5%; that for `CN1CCCc2ccc(S(=O)(=O)Nc3ccc4nncn4c3)cc21` [CBK306435], 98.6%; that for `CN(CC(O)CN1CCOCC1)C(=O)c1cc2sccc2[nH]1` (stereo not drawn) [CBK306437], 95.8%.
On the same count and under the same terms, in the case of `Cc1csc(N2CCC(Nc3cc(CO)ccc3Cl)CC2)n1` [CBK306440] it was 89.7%; in that of `CNC(=O)CN1CCN(c2cc(C#N)ccc2C(F)(F)F)CC1=O` [CBK306441], 93.6%.
As to `COC(=O)c1ccc(N2CCN(Cc3cnoc3C)C(C)C2)cc1` (stereo not drawn) [CBK306442], the viability at 28.5 h, 10 µM was 109%.
Same read-out and setting: in the case of `CC(C)c1nccn1CC(=O)N(C)C(C)c1ccc(F)c(F)c1` (stereo not drawn) [CBK306443] it was 94.5%; in that of `CC(C)(C)n1cc(NC2CCN(c3ccc(C#N)cc3)C2=O)cn1` (stereo not drawn) [CBK306445], 85.7%.
On the same count and under the same terms, the result for `Cc1cc(-c2nnc(NCc3ccnn3C)o2)c(C)o1` [CBK306446] reads 84.6%.
For the molecule `CCc1cc(=O)[nH]c(-c2ccc(N3CC(C(N)=O)CCC3C)nc2)n1` (stereo not drawn) [CBK306448], the viability at 28.5 h, 10 µM worked out at 93.1%.
The same measure, in the same setting: in the case of `CSc1nnc(CCCNc2cccc(C#N)n2)n1CC(C)C` [CBK306449] it was 96.8%.
The same measure, in the same setting: the result for `O=c1c2cc(Br)cc(F)c2ncn1CCC1CCCO1` (stereo not drawn) [CBK306451] reads 95.9%.
On the same count and under the same terms, the result for `O=C(c1ncccc1O)N1CC(O)CC1c1cc(F)ccc1F` (stereo not drawn) [CBK306452] reads 97.9%; that for `Cc1occc1SCC(=O)Nc1ccc(CN2CCOCC2)cc1` [CBK306453], 89.9%.
For `Cn1nccc1CNc1ncn(CC(=O)N2CCCCCC2)n1` [CBK306454], the viability at 28.5 h, 10 µM stood at 90%.
Same read-out and setting: in the case of `CS(=O)(=O)NC1CCCN(c2ccc3ccccc3n2)C1` (stereo not drawn) [CBK306457] it was 99.7%; in that of `Cc1ccc(CS(=O)(=O)N(CC(C)C)C2CC2)c(F)c1` [CBK306460], 82.9%; in that of `Cc1nc(-c2ccc(N3CC(C(N)=O)CCC3C)nc2)[nH]c(=O)c1C` (stereo not drawn) [CBK306463], 83.9%.
Turning to `Cc1cc2c(N3CCCC(NS(C)(=O)=O)C3)nccc2o1` (stereo not drawn) [CBK306464], the viability at 28.5 h, 10 µM amounted to 93.4%.
Same read-out and setting: in the case of `CC(C)(C)OC(=O)N1CCN(Cc2nc(-c3ccccc3)no2)CC1` [CBK306465] it was 99.8%; in that of `COc1ccccc1CN(C)C(C)C(=O)Nc1sccc1C(N)=O` (stereo not drawn) [CBK306466], 109%.
Same read-out and setting: the result for `CSCCN(C)C(=O)c1nnn(Cc2ccc(F)cc2F)c1C` [CBK306468] reads 93.2%; that for `COCC(C)NC(=O)c1cc(-c2cccs2)nc2onc(C)c12` (stereo not drawn) [CBK306473], 104%; that for `CC(NC(=O)N1CCSCC1)c1cccc(Br)c1` (stereo not drawn) [CBK306475], 86.2%.
Still for that read-out and setting: in the case of `CCC(=O)Nc1ccc(-c2csc(N3CCCC(C)C3)n2)cc1` (stereo not drawn) [CBK306478] it was 83.3%.
`CCNC(=O)CN(CC)S(=O)(=O)c1cccc(C#N)c1` [CBK306481]: the viability at 28.5 h, 10 µM was determined as 90.1%.
Same read-out and setting: the result for `CCCn1c(SCC(=O)N2CCOCC2)nc2cc(Cl)ccc2c1=O` [CBK306482] reads 97.6%; that for `COCC1(C)NC(=O)N(Cc2nn(-c3ccccc3)c3c2CCC3)C1=O` (stereo not drawn) [CBK306483], 88.8%; that for `CCc1cc(=O)[nH]c(-c2ccc(N(C)CC(C)O)nc2)n1` (stereo not drawn) [CBK306484], 88.4%.
Same read-out and setting: in the case of `O=C(NS(=O)(=O)c1cccc(-c2nnco2)c1)C1C2C3CCC(C3)C12` (stereo not drawn) [CBK306488] it was 89%.
With `CCC(=O)Nc1ccc(-c2csc(N3CCC(C)CC3)n2)cc1` [CBK306490], the viability at 28.5 h, 10 µM came out at 111%.
Still for that read-out and setting: the result for `CC(C)(C)C(O)CNc1ncnc2ccc(S(C)(=O)=O)cc12` (stereo not drawn) [CBK306494] reads 76.8%.
Same read-out and setting: the result for `CCC(CC)CNc1ncnc2ccc(S(C)(=O)=O)cc12` [CBK306495] reads 90.9%; that for `COCc1nc(C)c(C(=O)NC2CCCN(c3ccn(C)n3)C2=O)s1` (stereo not drawn) [CBK306497], 92.2%.
Still for that read-out and setting: in the case of `CC1Cc2ccccc2N1CCNC(=O)Cc1cn2ccsc2n1` (stereo not drawn) [CBK306499] it was 87.6%; in that of `Cc1c(C(=O)N(C)Cc2nc3ccccc3s2)nnn1C1CCNCC1` [CBK306501C], 85.9%.
In the case of `CCOc1ccc(-c2ccnc(C)n2)cc1C(=O)O` [CBK306505], the viability at 28.5 h, 10 µM stood at 104%.
Take `O=C(O)CCn1cc(CN2CCOc3ccccc3C2)cn1` [CBK306507]: the viability at 28.5 h, 10 µM is 101%.
The same measure, in the same setting: the result for `Cc1cc(=O)c2ccccc2n1CC(=O)N1CCNC(=O)C1C` (stereo not drawn) [CBK306511] reads 109%; that for `COc1ccc2c(c1)cc(C(=O)N1CCCn3cncc3C1)n2C` [CBK306516], 96.1%.
Same read-out and setting: the result for `Cn1ncc(N2CCC(CNC(=O)COc3ccc(Cl)cc3)C2)cc1=O` (stereo not drawn) [CBK306517] reads 79%.
Same read-out and setting: in the case of `CSc1nnc(CC2CCN(C(=O)Cn3nnnc3N)CC2)n1C` [CBK306520] it was 97.6%.
For `O=C(c1ccc(NCCCCO)nc1)N1CCC(N2CCOCC2)CC1` [CBK306521], the viability at 28.5 h, 10 µM was 96%.
On the same count and under the same terms, in the case of `CN1CC(c2ccccc2)CC2(CCN(CCCn3cnnn3)CC2)C1` (stereo not drawn) [CBK306522] it was 95%; in that of `CCn1c(C)cc(C(=O)NC2CCN(c3ncccc3C#N)CC2)c1C` [CBK306524], 87.8%; in that of `CCC(NC(=O)Nc1cc(N2CCOCC2)ccc1Cl)c1nc(C)no1` (stereo not drawn) [CBK306526], 87.9%.
The same measure, in the same setting: the result for `Cc1cccc(=O)n1CCC(=O)N1CCCCC1CN1CCOCC1` (stereo not drawn) [CBK306528] reads 109%.
